Results reported in ChEMBL document CHEMBL4184166 (Bioorg Med Chem Lett, 2017).

Columns and labels:
Cytochrome P450 1B1 [1] = target: T1, Cytochrome P450 1B1 (Homo sapiens, UniProt Q16678); assay: Inhibition of human CYP1B1 expressed in HEK293 cells by fluorescence assay; type: cell-based
T1 sequence (Q16678 whole entry): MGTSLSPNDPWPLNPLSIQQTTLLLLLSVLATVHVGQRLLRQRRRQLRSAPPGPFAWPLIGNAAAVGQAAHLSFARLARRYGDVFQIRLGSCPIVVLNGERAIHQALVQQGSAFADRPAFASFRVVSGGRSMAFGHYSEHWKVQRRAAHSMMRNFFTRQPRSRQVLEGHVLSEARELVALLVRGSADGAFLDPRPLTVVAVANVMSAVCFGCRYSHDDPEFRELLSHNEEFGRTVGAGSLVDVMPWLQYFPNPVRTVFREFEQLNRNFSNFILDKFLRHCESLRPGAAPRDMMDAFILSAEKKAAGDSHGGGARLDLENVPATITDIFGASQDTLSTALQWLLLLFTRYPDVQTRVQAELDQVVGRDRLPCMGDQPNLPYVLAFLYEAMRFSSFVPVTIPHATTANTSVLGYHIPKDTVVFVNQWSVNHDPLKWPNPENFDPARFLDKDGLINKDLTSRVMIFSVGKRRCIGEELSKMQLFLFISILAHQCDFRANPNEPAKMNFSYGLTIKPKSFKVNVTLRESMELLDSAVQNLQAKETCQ

Cytochrome P450 1A2 [2] = target: T2, Cytochrome P450 1A2 (Homo sapiens, UniProt P05177); assay: Inhibition of recombinant human CYP1A2 expressed in yeast microsomal membranes by fluorescence assay; type: ADME, cell membranes, Microsomal Membrane
T2 sequence (P05177 whole entry): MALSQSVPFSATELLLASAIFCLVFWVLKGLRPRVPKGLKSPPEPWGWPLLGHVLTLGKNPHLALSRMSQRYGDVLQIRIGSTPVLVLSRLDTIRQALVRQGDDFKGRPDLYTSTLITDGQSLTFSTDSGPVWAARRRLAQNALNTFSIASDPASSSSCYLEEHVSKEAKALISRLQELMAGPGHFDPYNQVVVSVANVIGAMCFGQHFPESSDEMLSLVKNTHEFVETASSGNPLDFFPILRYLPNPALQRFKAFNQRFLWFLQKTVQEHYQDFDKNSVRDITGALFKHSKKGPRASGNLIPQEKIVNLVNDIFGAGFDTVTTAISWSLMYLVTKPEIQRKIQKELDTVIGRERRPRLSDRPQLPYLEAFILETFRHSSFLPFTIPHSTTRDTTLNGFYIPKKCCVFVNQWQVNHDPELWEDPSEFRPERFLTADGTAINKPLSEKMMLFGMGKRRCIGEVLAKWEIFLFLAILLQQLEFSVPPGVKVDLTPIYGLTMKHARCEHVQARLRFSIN

Cytochrome P450 2D6 [3] = target: T3, Cytochrome P450 2D6 (Homo sapiens, UniProt P10635); assay: Inhibition of recombinant human CYP2D6 expressed in yeast microsomal membranes by fluorescence assay; type: ADME, cell membranes, Microsomal Membrane
Cytochrome P450 1A1 [4] = target: T4, Cytochrome P450 1A1 (Homo sapiens, UniProt P04798); assay: Inhibition of human CYP1A expressed in HEK293 cells by fluorescence assay; type: ADME, cell-based
T4 sequence (P04798 whole entry): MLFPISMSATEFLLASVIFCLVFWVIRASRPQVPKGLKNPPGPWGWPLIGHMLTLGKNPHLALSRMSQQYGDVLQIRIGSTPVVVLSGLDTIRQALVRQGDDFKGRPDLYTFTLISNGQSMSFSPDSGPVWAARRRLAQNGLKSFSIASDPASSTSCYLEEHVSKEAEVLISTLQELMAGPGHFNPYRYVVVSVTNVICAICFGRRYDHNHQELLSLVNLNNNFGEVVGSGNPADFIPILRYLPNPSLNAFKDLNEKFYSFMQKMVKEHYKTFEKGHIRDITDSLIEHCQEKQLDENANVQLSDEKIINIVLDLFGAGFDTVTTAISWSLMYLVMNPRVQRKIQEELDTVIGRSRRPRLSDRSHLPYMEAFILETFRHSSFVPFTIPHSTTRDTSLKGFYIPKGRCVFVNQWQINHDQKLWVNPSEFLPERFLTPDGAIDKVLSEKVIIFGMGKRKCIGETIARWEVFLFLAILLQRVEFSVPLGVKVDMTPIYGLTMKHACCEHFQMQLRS

Cytochrome P450 2D6 [5] = target: T3, Cytochrome P450 2D6; assay: Inhibition of human CYP2D6 expressed in HEK293 cells by fluorescence assay; type: ADME, cell-based
CYP1B1 = target: T5, CYP1B1 (Homo sapiens, UniProt Q16678); assay: Inhibition of human CYP1B1 expressed in yeast microsomal membranes at 10 uM using 7-ethoxyresorufin as substrate by fluorescence assay relative to control; type: cell membranes; settings: probe 7-ethoxyresorufin
T5 sequence (Q16678 whole entry): T1 sequence (Q16678 whole entry)

Cytochrome P450 3A4 [6] = target: T6, Cytochrome P450 3A4 (Homo sapiens, UniProt P08684); assay: Inhibition of recombinant human CYP3A4 expressed in yeast microsomal membranes by fluorescence assay; type: ADME, cell membranes, Microsomal Membrane
Cytochrome P450 1A1 [7] = target: T4, Cytochrome P450 1A1; assay: Inhibition of recombinant human CYP1A1 expressed in yeast microsomal membranes by fluorescence assay; type: cell membranes
Cytochrome P450 1B1 [8] = target: T1, Cytochrome P450 1B1; assay: Inhibition of human CYP1B1 expressed in yeast microsomal membranes using 7-ethoxyresorufin as substrate by fluorescence assay; type: cell membranes
Cytochrome P450 3A4 [9] = target: T6, Cytochrome P450 3A4; assay: Inhibition of human CYP3A4 expressed in HEK293 cells by fluorescence assay; type: ADME, cell-based
CYP1A1 = target: T7, CYP1A1 (Homo sapiens, UniProt P04798); assay: Inhibition of recombinant human CYP1A1 expressed in yeast microsomal membranes at 10 uM by fluorescence assay relative to control; type: cell membranes
T7 sequence (P04798 whole entry): T4 sequence (P04798 whole entry)

Cytochrome P450 1A2 [10] = target: T2, Cytochrome P450 1A2; assay: Inhibition of human CYP1A2 expressed in HEK293 cells by fluorescence assay; type: ADME, cell-based

T3 sequence (P10635 whole entry): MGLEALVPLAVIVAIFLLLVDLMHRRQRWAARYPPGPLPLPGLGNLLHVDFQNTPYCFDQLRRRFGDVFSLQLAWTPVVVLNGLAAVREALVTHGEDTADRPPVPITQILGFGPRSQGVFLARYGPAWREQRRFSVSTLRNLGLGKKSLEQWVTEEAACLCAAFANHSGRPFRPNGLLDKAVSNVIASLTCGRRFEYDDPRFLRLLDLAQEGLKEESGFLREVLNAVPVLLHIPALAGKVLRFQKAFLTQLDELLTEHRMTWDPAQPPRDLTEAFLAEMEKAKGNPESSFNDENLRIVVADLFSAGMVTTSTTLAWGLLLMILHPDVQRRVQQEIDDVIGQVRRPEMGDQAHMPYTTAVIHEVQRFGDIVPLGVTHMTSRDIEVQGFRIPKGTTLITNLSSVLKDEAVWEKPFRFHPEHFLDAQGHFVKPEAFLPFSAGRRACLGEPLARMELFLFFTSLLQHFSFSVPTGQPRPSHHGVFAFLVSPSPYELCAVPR
T6 sequence (P08684 whole entry): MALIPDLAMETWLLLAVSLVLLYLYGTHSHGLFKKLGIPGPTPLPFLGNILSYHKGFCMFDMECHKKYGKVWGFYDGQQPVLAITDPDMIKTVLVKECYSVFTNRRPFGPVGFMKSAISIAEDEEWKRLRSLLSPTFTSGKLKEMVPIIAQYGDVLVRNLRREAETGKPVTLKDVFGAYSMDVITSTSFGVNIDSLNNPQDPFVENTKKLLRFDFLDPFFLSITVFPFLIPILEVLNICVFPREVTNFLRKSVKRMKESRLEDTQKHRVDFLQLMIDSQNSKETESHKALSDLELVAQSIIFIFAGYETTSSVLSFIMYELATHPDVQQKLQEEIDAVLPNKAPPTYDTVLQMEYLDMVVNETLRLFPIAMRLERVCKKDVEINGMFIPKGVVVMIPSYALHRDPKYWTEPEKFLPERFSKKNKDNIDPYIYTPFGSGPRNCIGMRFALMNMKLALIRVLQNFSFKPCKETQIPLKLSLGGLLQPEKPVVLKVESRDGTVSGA

| SMILES | inhibition at 10 µM (CYP1B1) | inhibition at 10 µM (CYP1A1) | other results |
| --- | --- | --- | --- |
| CC(C)=CCc1cc(C2CC(=O)c3ccc(O)c(CC=C(C)C)c3O2)ccc1O (configuration not stated) | 17.7% | 67.2% | IC50 (Cytochrome P450 1B1 [1]): 15 µM; IC50 (Cytochrome P450 1A2 [2]): > 20 µM; IC50 (Cytochrome P450 2D6 [3]): > 20 µM; IC50 (Cytochrome P450 1A1 [4]): > 20 µM; IC50 (Cytochrome P450 2D6 [5]): > 20 µM; IC50 (Cytochrome P450 3A4 [6]): > 20 µM; IC50 (Cytochrome P450 1A1 [7]): 17.6 µM; IC50 (Cytochrome P450 1B1 [8]): > 20 µM; IC50 (Cytochrome P450 3A4 [9]): > 20 µM; IC50 (Cytochrome P450 1A2 [10]): > 20 µM |
| CC(C)=CCc1cc(C2Oc3c(ccc(O)c3CC=C(C)C)C(=O)C2O)ccc1O (configuration not stated) | 7.5% | 31.4% | – |
| COc1ccc(C2COc3c(ccc4c3C=CC(C)(C)O4)C2)c(O)c1 (configuration not stated) | 12% | 29.6% | – |
| O=C(/C=C/c1ccc(O[C@H]2O[C@@H](CO)[C@H](O)[C@@H](O)[C@@H]2O[C@@H]2OC[C@](O)(CO)[C@H]2O)cc1)c1ccc(O)cc1O | -9.5% | 11.4% | – |
| COc1ccc2c(c1)OC1c3ccc(O)cc3OCC21 (configuration not stated) | 31.7% | 27.5% | – |
| O=c1cc(-c2ccccc2)oc2c1ccc1ccccc12 [ALPHA-NAPHTHOFLAVONE] | – | 97% | – |
| CC1(C)[C@@H](O)CC[C@]2(C)[C@H]3C(=O)C=C4[C@@H]5C[C@@](C)(C(=O)O)CC[C@]5(C)CC[C@@]4(C)[C@]3(C)CC[C@@H]12 [ENOXOLONE] | -2.1% | 11.4% | – |
| COc1ccc(-c2coc3cc(O)ccc3c2=O)cc1 [FORMONONETIN] | -1.3% | 10.8% | – |
| CC1(C)C=Cc2c(ccc3c2OC[C@@H](c2ccc(O)cc2O)C3)O1 [GLABRIDIN] | 26.6% | 36.8% | – |
| CC1(C)[C@@H](O[C@H]2O[C@H](C(=O)O)[C@@H](O)[C@H](O)[C@H]2O[C@@H]2O[C@H](C(=O)O)[C@@H](O)[C@H](O)[C@H]2O)CC[C@]2(C)[C@H]3C(=O)C=C4[C@@H]5C[C@@](C)(C(=O)O)CC[C@]5(C)CC[C@@]4(C)[C@]3(C)CC[C@@H]12 [GLYCYRRHIZIN] | 10.5% | 39% | – |
| O=C(/C=C/c1ccc(O)cc1)c1ccc(O)cc1O [ISOLIQUIRITIGENIN] | 3.1% | 22.3% | – |
| O=C1C[C@@H](c2ccc(O)cc2)Oc2cc(O)ccc21 [LIQUIRTIGENIN] | 38.2% | 19.2% | – |
| O=c1c(O)c(-c2ccc(O)c(O)c2)oc2cc(O)cc(O)c12 [QUERCETIN] | 67.2% | 31.5% | IC50 (Cytochrome P450 2D6 [3]): > 20 µM; IC50 (Cytochrome P450 2D6 [5]): > 20 µM |
